Test results taken from ChEMBL document CHEMBL1126925, “Nonprostanoid prostacyclin mimetics. 4. Derivatives of 2-[3-[2-(4,5-diphenyl-2-oxazolyl)ethyl]phenoxy]acetic acid substituted alpha to the oxazole ring” (J Med Chem, 1993).

Organism: Homo sapiens
Test: In vitro inhibition of ADP-induced aggregation of human platelets
Assay type: functional

Structure (SMILES) | IC50
O=C(O)COc1cccc(/C=C\c2nc(-c3ccccc3)c(-c3ccccc3)o2)c1 | 180 nM
NC(=O)C(Cc1cccc(OCC(=O)O)c1)c1nc(-c2ccccc2)c(-c2ccccc2)o1 (stereo unspecified) | 3750 nM
CN(C)C(=O)C(=Cc1cccc(OCC(=O)O)c1)c1nc(-c2ccccc2)c(-c2ccccc2)o1 | 12200 nM
N#CC(Cc1cccc(OCC(=O)O)c1)c1nc(-c2ccccc2)c(-c2ccccc2)o1 (stereo unspecified) | 440 nM
C[S+]([O-])C(Cc1cccc(OCC(=O)O)c1)c1nc(-c2ccccc2)c(-c2ccccc2)o1 (stereo unspecified) | 7080 nM
O=C(O)COc1cccc(CC(CCCCO)c2nc(-c3ccccc3)c(-c3ccccc3)o2)c1 (stereo unspecified) | 4680 nM
CCOC(=O)C(Cc1cccc(OCC(=O)O)c1)c1nc(-c2ccccc2)c(-c2ccccc2)o1 (stereo unspecified) | 120 nM
CCOC(=O)/C(=C\c1cccc(OCC(=O)O)c1OC)c1nc(-c2ccccc2)c(-c2ccccc2)o1 | 130 nM
O=C(O)COc1cccc(CC(CCCO)c2nc(-c3ccccc3)c(-c3ccccc3)o2)c1 (stereo unspecified) | 1700 nM
CCOC(=O)/C(=C\c1cccc(OCC(=O)OC(C)(C)C)c1)c1nc(-c2ccccc2)c(-c2ccccc2)o1 | > 60000 nM
CC#CCC(C)[C@H](O)/C=C/[C@@H]1[C@H]2C/C(=C/CCCC(=O)O)C[C@H]2C[C@H]1O (stereo partly specified) [ILOPROST] | 2 nM
O=C(O)COc1cccc(CC(c2ccccc2)c2nc(-c3ccccc3)c(-c3ccccc3)o2)c1 (stereo unspecified) | 23200 nM
CNC(=O)C(Cc1cccc(OCC(=O)O)c1)c1nc(-c2ccccc2)c(-c2ccccc2)o1 (stereo unspecified) | 690 nM
CC(C)C(Cc1cccc(OCC(=O)O)c1)c1nc(-c2ccccc2)c(-c2ccccc2)o1 (stereo unspecified) | 970 nM
CNC(=O)/C(=C\c1cccc(OCC(=O)O)c1)c1nc(-c2ccccc2)c(-c2ccccc2)o1 | 15000 nM
CCOC(=O)C(=Cc1cccc(OCC(=O)OC)c1)c1nc(-c2ccccc2)c(-c2ccccc2)o1 [listing 1 of 2 here] | 19700 nM
CC(C)OC(=O)C(Cc1cccc(OCC(=O)O)c1)c1nc(-c2ccccc2)c(-c2ccccc2)o1 (stereo unspecified) | 1220 nM
O=C(O)COc1cccc(CC(c2nc(-c3ccccc3)c(-c3ccccc3)o2)c2cccs2)c1 (stereo unspecified) | 33200 nM

Structure (SMILES) | IC50
CCOP(=O)(OCC)C(Cc1cccc(OCC(=O)O)c1)c1nc(-c2ccccc2)c(-c2ccccc2)o1 (stereo unspecified) | 900 nM
O=C(O)COc1cccc(CC(CO)c2nc(-c3ccccc3)c(-c3ccccc3)o2)c1 (stereo unspecified) | 9310 nM
O=C(O)COc1cccc(CC(C(=O)O)c2nc(-c3ccccc3)c(-c3ccccc3)o2)c1 (stereo unspecified) | 14000 nM
CN(C)C(=O)C(Cc1cccc(OCC(=O)O)c1)c1nc(-c2ccccc2)c(-c2ccccc2)o1 (stereo unspecified) | 3560 nM
O=C(O)COc1cccc(/C=C(\C(=O)O)c2nc(-c3ccccc3)c(-c3ccccc3)o2)c1 | 20300 nM
C=CCC(Cc1cccc(OCC(=O)O)c1)(C(=O)OCC)c1nc(-c2ccccc2)c(-c2ccccc2)o1 (stereo unspecified) | 7680 nM
N#C/C(=C\c1cccc(OCC(=O)O)c1)c1nc(-c2ccccc2)c(-c2ccccc2)o1 | 250 nM
O=C(O)COc1cccc(CC(c2ccsc2)c2nc(-c3ccccc3)c(-c3ccccc3)o2)c1 (stereo unspecified) | 20700 nM
CSC(Cc1cccc(OCC(=O)O)c1)c1nc(-c2ccccc2)c(-c2ccccc2)o1 (stereo unspecified) | 1300 nM
CCOC(=O)/C(=C\c1cccc(OCC(=O)O)c1)c1nc(-c2ccccc2)c(-c2ccccc2)o1 | 360 nM
O=C(O)COc1cccc(/C=C/c2nc(-c3ccccc3)c(-c3ccccc3)o2)c1 | 13000 nM
CCOC(=O)C(Cc1cccc(OCC(=O)O)c1OC)c1nc(-c2ccccc2)c(-c2ccccc2)o1 (stereo unspecified) | 1180 nM
CCOC(=O)C(=Cc1cccc(OCC(=O)OC)c1)c1nc(-c2ccccc2)c(-c2ccccc2)o1 [listing 2 of 2 here] | 2000 nM
O=C(O)COc1cccc(CC(CCO)c2nc(-c3ccccc3)c(-c3ccccc3)o2)c1 (stereo unspecified) | 2920 nM
CS(=O)(=O)C(Cc1cccc(OCC(=O)O)c1)c1nc(-c2ccccc2)c(-c2ccccc2)o1 (stereo unspecified) | 7960 nM
C=CCC(Cc1cccc(OCC(=O)O)c1)c1nc(-c2ccccc2)c(-c2ccccc2)o1 (stereo unspecified) | 570 nM
CC(C)(C)C(Cc1cccc(OCC(=O)O)c1)c1nc(-c2ccccc2)c(-c2ccccc2)o1 (stereo unspecified) | 3660 nM
COC(=O)C(Cc1cccc(OCC(=O)O)c1)c1nc(-c2ccccc2)c(-c2ccccc2)o1 (stereo unspecified) | 80 nM
